Measured values as given in publication PMC2797226 (The Journal of Biological Chemistry, 2009).

Experiments:
Kar2p = Kar2p (Saccharomyces cerevisiae, UniProt P16474); test: proteinase K protection, SDS-PAGE; assay type: binding; conditions: 2 mM ADP; 5 mM MgCl2; pH 7.4; room temperature
Lhs1p = target: T1, Lhs1p (Saccharomyces cerevisiae, UniProt P36016); test: biochemical
T1 sequence (P36016 21-881): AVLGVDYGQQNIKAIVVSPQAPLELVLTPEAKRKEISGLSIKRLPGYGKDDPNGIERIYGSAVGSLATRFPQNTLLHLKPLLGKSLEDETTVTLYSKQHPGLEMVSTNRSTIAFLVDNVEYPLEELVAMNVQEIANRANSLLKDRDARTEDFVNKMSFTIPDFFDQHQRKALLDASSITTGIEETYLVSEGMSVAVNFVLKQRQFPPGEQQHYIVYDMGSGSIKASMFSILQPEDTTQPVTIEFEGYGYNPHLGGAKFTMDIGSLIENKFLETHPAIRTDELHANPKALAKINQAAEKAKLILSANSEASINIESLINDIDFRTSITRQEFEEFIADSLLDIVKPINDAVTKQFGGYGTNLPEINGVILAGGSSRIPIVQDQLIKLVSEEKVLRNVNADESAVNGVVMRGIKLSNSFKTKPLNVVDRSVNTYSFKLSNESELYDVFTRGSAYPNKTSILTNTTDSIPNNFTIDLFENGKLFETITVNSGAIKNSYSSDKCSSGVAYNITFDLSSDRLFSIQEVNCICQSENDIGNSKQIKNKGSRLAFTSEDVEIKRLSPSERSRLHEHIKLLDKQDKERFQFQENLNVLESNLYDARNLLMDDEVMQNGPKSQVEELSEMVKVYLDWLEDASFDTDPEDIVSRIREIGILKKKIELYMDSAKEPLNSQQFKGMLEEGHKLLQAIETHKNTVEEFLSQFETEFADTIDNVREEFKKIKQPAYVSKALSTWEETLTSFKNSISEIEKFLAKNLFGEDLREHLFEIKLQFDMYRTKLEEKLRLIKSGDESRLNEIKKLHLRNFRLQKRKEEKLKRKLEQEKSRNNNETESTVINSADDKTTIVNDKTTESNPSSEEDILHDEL

Sequence of Kar2p (P16474 43-682): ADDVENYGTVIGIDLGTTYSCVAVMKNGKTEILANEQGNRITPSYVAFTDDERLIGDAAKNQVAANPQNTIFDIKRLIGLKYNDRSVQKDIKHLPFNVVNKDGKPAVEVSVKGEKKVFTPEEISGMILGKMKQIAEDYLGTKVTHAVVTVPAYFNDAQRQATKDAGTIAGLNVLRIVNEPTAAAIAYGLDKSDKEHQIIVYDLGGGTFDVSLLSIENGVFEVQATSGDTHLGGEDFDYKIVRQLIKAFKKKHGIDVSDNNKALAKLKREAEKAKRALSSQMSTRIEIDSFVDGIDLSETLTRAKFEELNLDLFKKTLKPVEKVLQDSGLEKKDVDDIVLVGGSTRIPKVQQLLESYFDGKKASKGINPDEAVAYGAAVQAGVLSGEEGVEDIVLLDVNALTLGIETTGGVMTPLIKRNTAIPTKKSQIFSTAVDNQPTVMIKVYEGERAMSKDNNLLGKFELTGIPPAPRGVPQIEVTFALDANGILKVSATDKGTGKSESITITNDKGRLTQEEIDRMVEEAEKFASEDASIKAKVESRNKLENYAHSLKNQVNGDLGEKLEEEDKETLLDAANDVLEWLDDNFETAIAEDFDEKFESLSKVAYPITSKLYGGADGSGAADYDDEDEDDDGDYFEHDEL

| Kd (Lhs1p) [µM] | Compound | proteinase K protection, SDS-PAGE (Kar2p) |
| --- | --- | --- |
|  | Nc1ncnc2c1ncn2[C@@H]1O[C@H](COP(=O)(O)OP(=O)(O)O)[C@@H](O)[C@H]1O [ADP] | ADP binding protects a ∼44-kDa NBD fragment |
| 13.6 ± 0.5 | Nc1ncnc2c1ncn2[C@@H]1O[C@H](COP(=O)(O)OP(=O)(O)OP(=O)(O)O)[C@@H](O)[C@H]1O [ATP] |  |
